Measurements published in the kinase profiling compilation of Christmann-Franck et al. (2016).

What was measured:
Test in all cases: radiometric filter-binding kinase assay, Kinase HotSpot
Conditions in all cases: compound 0.5 µM; ATP 10 µM
[1] = biological target: SGK2 (human) (UniProt Q9HBY8)
[2] = biological target: PLK3 (human) (UniProt Q9H4B4)
[3] = biological target: ITK (human) (UniProt Q08881)
[4] = biological target: CAMK2A (human) (UniProt Q9UQM7)
[5] = biological target: ADRBK2 (human) (UniProt P35626)
[6] = biological target: CDK9 CCNK (human) (UniProt O75909+P50750)
[7] = biological target: CDC42BPA (human) (UniProt Q5VT25)
[8] = biological target: MARK1 (human) (UniProt Q9P0L2)
[9] = biological target: LRRK2 (human) (UniProt Q5S007)
[10] = biological target: CDK5 CDK5R1 p25 (human) (UniProt Q00535+Q15078)
Chain of CDK5 CDK5R1 p25 (human) (Q00535 whole entry, looked up): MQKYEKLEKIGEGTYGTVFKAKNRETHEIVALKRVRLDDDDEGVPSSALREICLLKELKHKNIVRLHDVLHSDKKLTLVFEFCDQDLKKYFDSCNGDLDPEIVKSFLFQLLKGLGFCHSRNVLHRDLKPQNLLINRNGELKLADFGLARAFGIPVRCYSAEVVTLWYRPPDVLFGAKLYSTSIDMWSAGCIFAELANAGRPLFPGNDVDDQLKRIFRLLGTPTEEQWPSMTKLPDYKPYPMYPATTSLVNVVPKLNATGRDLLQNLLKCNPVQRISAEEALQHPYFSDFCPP
Chain of CDK5 CDK5R1 p25 (human) (Q15078 whole entry, looked up): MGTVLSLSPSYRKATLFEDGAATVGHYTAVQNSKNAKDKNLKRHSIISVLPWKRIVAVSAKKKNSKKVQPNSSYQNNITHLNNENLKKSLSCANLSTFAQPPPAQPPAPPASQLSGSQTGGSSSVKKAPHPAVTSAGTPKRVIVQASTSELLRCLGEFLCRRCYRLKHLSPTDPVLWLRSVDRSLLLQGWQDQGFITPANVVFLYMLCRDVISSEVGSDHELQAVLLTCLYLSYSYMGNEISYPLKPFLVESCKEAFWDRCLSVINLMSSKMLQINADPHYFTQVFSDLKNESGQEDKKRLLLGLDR

[11] = biological target: PRKCI (human) (UniProt P41743)
[12] = biological target: MLTK (human) (UniProt Q9NYL2)
Chain of MLTK (human) (Q9NYL2 whole entry, looked up): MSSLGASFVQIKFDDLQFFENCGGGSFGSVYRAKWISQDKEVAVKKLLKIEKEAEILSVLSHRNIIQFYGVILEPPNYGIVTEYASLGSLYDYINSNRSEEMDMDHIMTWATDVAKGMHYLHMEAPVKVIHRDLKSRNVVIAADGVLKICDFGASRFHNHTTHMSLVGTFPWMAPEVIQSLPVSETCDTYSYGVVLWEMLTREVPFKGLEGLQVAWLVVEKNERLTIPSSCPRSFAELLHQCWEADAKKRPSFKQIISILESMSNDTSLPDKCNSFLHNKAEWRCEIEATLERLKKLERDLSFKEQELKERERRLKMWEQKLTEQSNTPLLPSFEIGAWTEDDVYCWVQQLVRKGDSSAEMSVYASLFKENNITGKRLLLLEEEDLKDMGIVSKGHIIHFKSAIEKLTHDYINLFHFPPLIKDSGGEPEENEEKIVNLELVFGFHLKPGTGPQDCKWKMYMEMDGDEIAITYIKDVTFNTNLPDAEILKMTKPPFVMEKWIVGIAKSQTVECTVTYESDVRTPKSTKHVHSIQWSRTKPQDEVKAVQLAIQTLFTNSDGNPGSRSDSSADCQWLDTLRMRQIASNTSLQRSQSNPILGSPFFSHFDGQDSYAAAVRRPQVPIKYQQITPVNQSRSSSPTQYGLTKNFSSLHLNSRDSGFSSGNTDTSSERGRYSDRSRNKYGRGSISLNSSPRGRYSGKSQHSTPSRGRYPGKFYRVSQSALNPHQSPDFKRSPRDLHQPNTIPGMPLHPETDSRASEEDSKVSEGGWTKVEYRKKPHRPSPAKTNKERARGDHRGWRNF

[13] = biological target: PRKCE (human) (UniProt Q02156)
[14] = biological target: NEK4 (human) (UniProt P51957)
[15] = biological target: SGK3 (human) (UniProt Q96BR1)
[16] = biological target: PAK4 (human) (UniProt O96013)
Chain of PAK4 (human) (O96013 whole entry, looked up): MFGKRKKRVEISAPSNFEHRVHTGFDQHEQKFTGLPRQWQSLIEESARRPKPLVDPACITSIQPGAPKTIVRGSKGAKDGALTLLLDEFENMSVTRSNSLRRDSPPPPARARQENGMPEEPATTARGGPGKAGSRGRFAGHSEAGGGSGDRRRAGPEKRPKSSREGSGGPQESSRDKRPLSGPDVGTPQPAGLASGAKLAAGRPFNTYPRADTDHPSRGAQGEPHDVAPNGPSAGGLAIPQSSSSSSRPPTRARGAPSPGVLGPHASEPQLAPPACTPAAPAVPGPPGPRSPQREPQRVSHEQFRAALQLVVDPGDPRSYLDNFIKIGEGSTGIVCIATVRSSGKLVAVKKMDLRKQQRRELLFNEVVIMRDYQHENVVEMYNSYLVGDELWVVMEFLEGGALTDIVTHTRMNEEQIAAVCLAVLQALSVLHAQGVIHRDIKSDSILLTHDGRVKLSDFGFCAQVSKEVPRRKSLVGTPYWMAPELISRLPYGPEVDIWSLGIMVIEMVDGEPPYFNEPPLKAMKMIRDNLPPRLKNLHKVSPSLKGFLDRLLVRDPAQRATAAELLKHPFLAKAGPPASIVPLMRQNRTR

[17] = biological target: ZAP70 (human) (UniProt P43403)
Chain of ZAP70 (human) (P43403 whole entry, looked up): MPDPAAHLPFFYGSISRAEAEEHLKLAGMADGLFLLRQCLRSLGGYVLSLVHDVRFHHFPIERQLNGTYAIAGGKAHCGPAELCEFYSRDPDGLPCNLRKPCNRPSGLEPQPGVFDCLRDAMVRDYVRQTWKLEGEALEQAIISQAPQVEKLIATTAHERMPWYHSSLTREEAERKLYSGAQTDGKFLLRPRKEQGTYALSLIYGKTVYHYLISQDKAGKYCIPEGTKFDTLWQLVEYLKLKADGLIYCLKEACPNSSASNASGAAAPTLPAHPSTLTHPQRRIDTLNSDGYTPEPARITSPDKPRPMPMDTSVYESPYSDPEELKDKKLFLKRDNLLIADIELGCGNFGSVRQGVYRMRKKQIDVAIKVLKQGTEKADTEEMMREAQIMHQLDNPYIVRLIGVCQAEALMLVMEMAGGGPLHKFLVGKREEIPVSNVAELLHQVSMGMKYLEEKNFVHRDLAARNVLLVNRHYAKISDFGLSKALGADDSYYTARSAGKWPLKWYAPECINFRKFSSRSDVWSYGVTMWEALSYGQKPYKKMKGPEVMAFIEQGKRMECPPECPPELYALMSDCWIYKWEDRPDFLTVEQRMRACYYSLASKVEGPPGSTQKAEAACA

[18] = biological target: MAP3K2 (human) (UniProt Q9Y2U5)
[19] = biological target: CAMKK1 (human) (UniProt Q8N5S9)
Chain of CAMKK1 (human) (Q8N5S9 whole entry, looked up): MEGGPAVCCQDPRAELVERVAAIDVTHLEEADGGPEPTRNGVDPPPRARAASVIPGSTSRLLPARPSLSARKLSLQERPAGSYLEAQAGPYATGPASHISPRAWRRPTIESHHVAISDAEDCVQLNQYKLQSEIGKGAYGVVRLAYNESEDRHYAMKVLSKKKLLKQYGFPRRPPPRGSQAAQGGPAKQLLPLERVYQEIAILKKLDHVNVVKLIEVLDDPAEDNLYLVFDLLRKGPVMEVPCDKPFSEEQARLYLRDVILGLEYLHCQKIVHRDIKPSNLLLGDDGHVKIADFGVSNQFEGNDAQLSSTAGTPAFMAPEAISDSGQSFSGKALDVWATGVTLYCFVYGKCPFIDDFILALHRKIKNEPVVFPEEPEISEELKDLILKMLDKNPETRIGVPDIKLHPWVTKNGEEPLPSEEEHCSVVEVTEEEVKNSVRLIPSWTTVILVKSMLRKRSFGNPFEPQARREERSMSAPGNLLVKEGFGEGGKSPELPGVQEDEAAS

[20] = biological target: FLT1 (human) (UniProt P17948)
Chain of FLT1 (human) (P17948 whole entry, looked up): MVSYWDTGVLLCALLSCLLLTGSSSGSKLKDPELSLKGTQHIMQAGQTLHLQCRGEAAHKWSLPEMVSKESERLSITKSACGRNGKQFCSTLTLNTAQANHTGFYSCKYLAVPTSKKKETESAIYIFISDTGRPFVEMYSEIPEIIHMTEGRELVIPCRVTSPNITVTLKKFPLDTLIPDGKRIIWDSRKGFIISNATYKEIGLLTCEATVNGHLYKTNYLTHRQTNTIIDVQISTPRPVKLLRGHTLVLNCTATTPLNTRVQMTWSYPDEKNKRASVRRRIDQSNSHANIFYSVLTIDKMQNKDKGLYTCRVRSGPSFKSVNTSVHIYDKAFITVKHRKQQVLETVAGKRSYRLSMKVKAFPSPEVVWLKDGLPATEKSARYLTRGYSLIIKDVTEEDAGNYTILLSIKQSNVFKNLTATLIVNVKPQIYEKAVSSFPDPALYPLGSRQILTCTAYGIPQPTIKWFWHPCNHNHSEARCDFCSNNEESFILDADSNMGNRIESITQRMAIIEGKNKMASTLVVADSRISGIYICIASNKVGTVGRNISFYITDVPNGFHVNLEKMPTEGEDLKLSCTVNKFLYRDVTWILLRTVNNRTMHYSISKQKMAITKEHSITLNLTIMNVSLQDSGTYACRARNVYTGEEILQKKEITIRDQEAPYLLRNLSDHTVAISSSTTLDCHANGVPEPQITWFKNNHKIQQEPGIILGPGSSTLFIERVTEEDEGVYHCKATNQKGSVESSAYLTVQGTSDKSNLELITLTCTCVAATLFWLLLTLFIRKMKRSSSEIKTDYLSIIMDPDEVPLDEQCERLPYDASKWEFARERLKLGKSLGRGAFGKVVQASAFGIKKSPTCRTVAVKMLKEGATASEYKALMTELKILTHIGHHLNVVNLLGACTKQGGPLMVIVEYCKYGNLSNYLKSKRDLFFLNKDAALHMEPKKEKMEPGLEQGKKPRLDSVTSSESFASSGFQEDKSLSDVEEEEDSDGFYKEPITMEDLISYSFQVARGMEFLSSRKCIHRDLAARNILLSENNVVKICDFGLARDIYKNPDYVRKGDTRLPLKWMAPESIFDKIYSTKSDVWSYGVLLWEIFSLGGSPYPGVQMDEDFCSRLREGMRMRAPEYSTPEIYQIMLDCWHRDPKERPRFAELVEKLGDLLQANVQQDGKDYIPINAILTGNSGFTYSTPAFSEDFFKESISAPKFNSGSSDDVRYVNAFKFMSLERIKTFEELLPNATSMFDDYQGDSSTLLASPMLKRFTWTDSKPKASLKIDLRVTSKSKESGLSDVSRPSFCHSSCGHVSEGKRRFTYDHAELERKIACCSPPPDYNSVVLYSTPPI

[21] = biological target: MATK (human) (UniProt P42679)
[22] = biological target: BTK (human) (UniProt Q06187)
[23] = biological target: PAK6 (human) (UniProt Q9NQU5)
[24] = biological target: ADRBK1 (human) (UniProt P25098)
[25] = biological target: ABL2 (human) (UniProt P42684)
[26] = biological target: TAOK3 (human) (UniProt Q9H2K8)
[27] = biological target: FGR (human) (UniProt P09769)
[28] = biological target: STK10 (human) (UniProt O94804)
[29] = biological target: BMX (human) (UniProt P51813)
[30] = biological target: PRKCB1 (human) (UniProt P05771)
[31] = biological target: HIPK2 (human) (UniProt Q9H2X6)
[32] = biological target: YES1 (human) (UniProt P07947)
Chain of YES1 (human) (P07947 whole entry, looked up): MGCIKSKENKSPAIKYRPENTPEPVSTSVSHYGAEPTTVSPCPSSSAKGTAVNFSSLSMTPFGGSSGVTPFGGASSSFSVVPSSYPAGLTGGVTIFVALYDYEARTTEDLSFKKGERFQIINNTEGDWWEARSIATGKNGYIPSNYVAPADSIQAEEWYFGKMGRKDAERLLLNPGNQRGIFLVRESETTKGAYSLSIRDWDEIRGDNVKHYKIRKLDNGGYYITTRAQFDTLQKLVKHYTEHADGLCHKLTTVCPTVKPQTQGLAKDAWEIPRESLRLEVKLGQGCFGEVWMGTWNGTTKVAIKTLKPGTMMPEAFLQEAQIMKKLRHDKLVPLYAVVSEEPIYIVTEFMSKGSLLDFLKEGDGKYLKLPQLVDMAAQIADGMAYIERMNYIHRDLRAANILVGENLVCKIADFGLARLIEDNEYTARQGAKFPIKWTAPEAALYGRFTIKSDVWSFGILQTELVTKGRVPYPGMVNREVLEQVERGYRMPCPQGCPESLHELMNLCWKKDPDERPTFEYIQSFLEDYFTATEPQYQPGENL

[33] = biological target: IRAK4 (human) (UniProt Q9NWZ3)
[34] = biological target: DSTYK (human) (UniProt Q6XUX3)
[35] = biological target: CDC42BPB (human) (UniProt Q9Y5S2)
[36] = biological target: GRK7 (human) (UniProt Q8WTQ7)
[37] = biological target: MARK4 (human) (UniProt Q96L34)
[38] = biological target: PRKCD (human) (UniProt Q05655)
[39] = biological target: EPHA1 (human) (UniProt P21709)
[40] = biological target: MYLK (human) (UniProt Q15746)
[41] = biological target: CSK (human) (UniProt P41240)
[42] = biological target: PRKCG (human) (UniProt P05129)

Fc1ccc(-c2nc3n(c2-c2ccncc2)CCS3)cc1
residual activity [1]: 105%
residual activity [2]: 97.8%
residual activity [3]: 97.5%
residual activity [4]: 106%
residual activity [5]: 95%
residual activity [6]: 101%
residual activity [7]: 88.7%
residual activity [8]: 102%
residual activity [9]: 96.7%
residual activity [10]: 98.2%
residual activity [11]: 90.9%
residual activity [12]: 100%
residual activity [13]: 97.7%
residual activity [14]: 93.5%
residual activity [15]: 95.8%
residual activity [16]: 99.1%
residual activity [17]: 107%
residual activity [18]: 99.8%
residual activity [19]: 113%
residual activity [20]: 84.1%
residual activity [21]: 89.4%
residual activity [22]: 103%
residual activity [23]: 106%
residual activity [24]: 102%
residual activity [25]: 91%
residual activity [26]: 98.9%
residual activity [27]: 92.6%
residual activity [28]: 94.9%
residual activity [29]: 104%
residual activity [30]: 94.2%
residual activity [31]: 99.2%
residual activity [32]: 99.4%
residual activity [33]: 109%
residual activity [34]: 105%
residual activity [35]: 115%
residual activity [36]: 104%
residual activity [37]: 106%
residual activity [38]: 99.1%
residual activity [39]: 98.2%
residual activity [40]: 105%

Cn1c2ccccc2c2c3c(c4c5ccccc5n(CCC#N)c4c21)CNC3=O
residual activity [1]: 94%
residual activity [2]: 88.1%
residual activity [3]: 4.32%
residual activity [4]: 19.1%
residual activity [5]: 106%
residual activity [6]: 55.2%
residual activity [7]: 89.9%
residual activity [8]: 20.8%
residual activity [9]: 30.5%
residual activity [10]: 21.3%
residual activity [11]: 91.6%
residual activity [12]: 86.6%
residual activity [13]: 58.5%
residual activity [14]: 49.1%
residual activity [15]: 112%
residual activity [16]: 44%
residual activity [17]: 77.7%
residual activity [18]: 2.96%
residual activity [19]: 19.3%
residual activity [20]: 63.6%
residual activity [21]: 100%
residual activity [22]: 22%
residual activity [23]: 20.4%
residual activity [24]: 103%
residual activity [25]: 42.3%
residual activity [27]: 70.7%
residual activity [41]: 81%
residual activity [28]: 20.1%
residual activity [29]: 13.7%
residual activity [30]: 18.7%
residual activity [31]: 97.8%
residual activity [42]: 72.1%
residual activity [32]: 68.7%
residual activity [33]: 63.5%
residual activity [34]: 9.91%
residual activity [35]: 92.1%
residual activity [36]: 37.9%
residual activity [37]: 10.8%
residual activity [38]: 41.9%
residual activity [39]: 81.6%
residual activity [40]: 24.6%

O=C1C(Cl)=C(N2C(=O)CCC2=O)C(=O)c2ccccc21
residual activity [1]: 99.5%
residual activity [2]: 96.6%
residual activity [3]: 87.5%
residual activity [4]: 89.6%
residual activity [5]: 103%
residual activity [6]: 97.2%
residual activity [7]: 103%
residual activity [8]: 99.3%
residual activity [9]: 103%
residual activity [10]: 87.3%
residual activity [11]: 96.6%
residual activity [12]: 97.9%
residual activity [14]: 99.6%
residual activity [15]: 103%
residual activity [16]: 114%
residual activity [17]: 93.8%
residual activity [18]: 108%
residual activity [19]: 112%
residual activity [20]: 87.8%
residual activity [21]: 88%
residual activity [22]: 103%
residual activity [23]: 89.6%
residual activity [24]: 105%
residual activity [25]: 106%
residual activity [26]: 95.3%
residual activity [27]: 102%
residual activity [41]: 79.5%
residual activity [29]: 103%
residual activity [30]: 92.1%
residual activity [31]: 104%
residual activity [42]: 97.5%
residual activity [32]: 103%
residual activity [33]: 89.1%
residual activity [34]: 95.4%
residual activity [35]: 98.6%
residual activity [36]: 109%
residual activity [37]: 99.6%
residual activity [38]: 97.8%
residual activity [39]: 97.6%
residual activity [40]: 99.4%
